Source: ChEMBL document CHEMBL1201862, “PubChem BioAssay data set” (2004)
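Method: 48-hour compound exposure of cells in 96-well plates, five concentrations, linear interpolation of endpoints. GI50 is the concentration that inhibits growth by half.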 The source made the active and inactive calls. No stated cut-off is given here; in the data, active = GI50 up to about 1.1 µM and inactive = higher.

Assays:
Assay in all cases: NCI tumour cell line growth inhibition, 48 h
[1] = tested on: SNB-19
[2] = tested on: HOP-92
[3] = tested on: UACC-257
[4] = tested on: SNB-75
[5] = tested on: SW-620
[6] = tested on: U-251
[7] = tested on: 786-0
[8] = tested on: SF-539
[9] = tested on: NCI-H460
[10] = tested on: RPMI-8226
[11] = tested on: TK-10
[12] = tested on: KM12
[13] = tested on: SR
[14] = tested on: SK-MEL-28
[15] = tested on: SN12C
[16] = tested on: DMS-114
[17] = tested on: EKVX
[18] = tested on: OVCAR-3
[19] = tested on: CAKI-1
[20] = tested on: NCI-H23
[21] = tested on: NCI-H226
[22] = tested on: OVCAR-4
[23] = tested on: MOLT-4
[24] = tested on: HL-60
[25] = tested on: XF498
[26] = tested on: K562
[27] = tested on: ACHN
[28] = tested on: HT-29
[29] = tested on: LXFL 529
[30] = tested on: KM-20L2
[31] = tested on: IGROV-1
[32] = tested on: LOX IMVI
[33] = tested on: SF-268
[34] = tested on: SK-OV-3
[35] = tested on: M19-MEL
[36] = tested on: HCC 2998
[37] = tested on: M14
[38] = tested on: SK-MEL-5
[39] = tested on: A549
[40] = tested on: SF-295
[41] = tested on: A498
[42] = tested on: HOP-62
[43] = tested on: UACC-62
[44] = tested on: RXF 393
[45] = tested on: COLO 205
[46] = tested on: OVCAR-8
[47] = tested on: OVCAR-5
[48] = tested on: HCT-116
[49] = tested on: SNB-78
[50] = tested on: HCT-15
[51] = tested on: Malme-3M
[52] = tested on: UO-31
[53] = tested on: CCRF-CEM
[54] = tested on: DLD-1
[55] = tested on: SK-MEL-2
[56] = tested on: DMS-273
[57] = tested on: NCI-H522

CCOC(=O)C(=O)Nc1c(F)cc(F)cc1Br
GI50 [1]: > 100 µM (inactive) | GI50 [2]: > 100 µM (inactive) | GI50 [3]: > 100 µM (inactive) | GI50 [4]: > 100 µM (inactive) | GI50 [5]: > 100 µM (inactive) | GI50 [6]: > 100 µM (inactive) | GI50 [7]: > 100 µM (inactive) | GI50 [8]: > 100 µM (inactive) | GI50 [9]: > 100 µM (inactive) | GI50 [10]: > 100 µM (inactive) | GI50 [11]: > 100 µM (inactive) | GI50 [12]: > 100 µM (inactive) | GI50 [13]: > 100 µM (inactive) | GI50 [14]: > 100 µM (inactive) | GI50 [15]: > 100 µM (inactive) | GI50 [16]: > 100 µM (inactive) | GI50 [17]: > 100 µM (inactive) | GI50 [18]: > 100 µM (inactive) | GI50 [19]: > 100 µM (inactive) | GI50 [20]: > 100 µM (inactive) | GI50 [21]: > 100 µM (inactive) | GI50 [22]: > 100 µM (inactive) | GI50 [23]: > 100 µM (inactive) | GI50 [24]: > 100 µM (inactive) | GI50 [25]: > 100 µM (inactive) | GI50 [26]: > 100 µM (inactive) | GI50 [27]: > 100 µM (inactive) | GI50 [28]: > 100 µM (inactive) | GI50 [29]: > 100 µM (inactive) | GI50 [30]: > 100 µM (inactive) | GI50 [31]: > 100 µM (inactive) | GI50 [32]: > 100 µM (inactive) | GI50 [33]: > 100 µM (inactive) | GI50 [34]: > 100 µM (inactive) | GI50 [35]: > 100 µM (inactive) | GI50 [36]: > 100 µM (inactive) | GI50 [37]: > 100 µM (inactive) | GI50 [38]: > 100 µM (inactive) | GI50 [39]: > 100 µM (inactive) | GI50 [40]: > 100 µM (inactive) | GI50 [41]: > 100 µM (inactive) | GI50 [42]: > 100 µM (inactive) | GI50 [43]: > 100 µM (inactive) | GI50 [44]: > 100 µM (inactive) | GI50 [45]: > 100 µM (inactive) | GI50 [46]: > 100 µM (inactive) | GI50 [47]: > 100 µM (inactive) | GI50 [48]: > 100 µM (inactive) | GI50 [49]: > 100 µM (inactive) | GI50 [50]: > 100 µM | GI50 [51]: > 100 µM (inactive) | GI50 [52]: > 100 µM (inactive) | GI50 [53]: > 100 µM (inactive) | GI50 [54]: > 100 µM (inactive) | GI50 [55]: > 100 µM (inactive)

CCc1cccc(C(C)CC)c1NC(=O)C(=O)C(CC(=O)Nc1ccc(Cl)c(Cl)c1)C(=O)OC (configuration not stated)
GI50 [1]: > 100 µM (inactive) | GI50 [2]: 16.7 µM (inactive) | GI50 [3]: > 100 µM (inactive) | GI50 [4]: 21 µM (inactive) | GI50 [5]: 46.7 µM (inactive) | GI50 [6]: > 100 µM (inactive) | GI50 [7]: 80.9 µM (inactive) | GI50 [8]: > 100 µM (inactive) | GI50 [56]: 15.9 µM (inactive) | GI50 [9]: > 100 µM (inactive) | GI50 [10]: 43.4 µM (inactive) | GI50 [11]: > 100 µM (inactive) | GI50 [12]: 41.5 µM (inactive) | GI50 [13]: 66.1 µM (inactive) | GI50 [14]: > 100 µM (inactive) | GI50 [15]: > 100 µM (inactive) | GI50 [16]: 36.8 µM (inactive) | GI50 [17]: > 100 µM (inactive) | GI50 [18]: > 100 µM (inactive) | GI50 [57]: 38.5 µM (inactive) | GI50 [19]: 19.5 µM (inactive) | GI50 [20]: > 100 µM (inactive) | GI50 [21]: > 100 µM (inactive) | GI50 [22]: > 100 µM (inactive) | GI50 [23]: 71.3 µM (inactive) | GI50 [24]: > 100 µM (inactive) | GI50 [26]: 9.79 µM (inactive) | GI50 [27]: 9.71 µM (inactive) | GI50 [28]: 76 µM (inactive) | GI50 [29]: 16.7 µM (inactive) | GI50 [30]: 19.8 µM (inactive) | GI50 [31]: > 100 µM (inactive) | GI50 [33]: 64 µM (inactive) | GI50 [34]: > 100 µM (inactive) | GI50 [35]: 36.8 µM (inactive) | GI50 [36]: 93.3 µM (inactive) | GI50 [37]: 57.1 µM (inactive) | GI50 [39]: 63.1 µM (inactive) | GI50 [40]: 30.4 µM (inactive) | GI50 [41]: > 100 µM (inactive) | GI50 [42]: 71.1 µM (inactive) | GI50 [43]: 3.59 µM (inactive) | GI50 [44]: > 100 µM (inactive) | GI50 [45]: > 100 µM (inactive) | GI50 [46]: > 100 µM (inactive) | GI50 [47]: > 100 µM (inactive) | GI50 [48]: > 100 µM (inactive) | GI50 [49]: > 100 µM (inactive) | GI50 [50]: 20.2 µM | GI50 [51]: > 100 µM (inactive) | GI50 [52]: 73.1 µM (inactive) | GI50 [53]: > 100 µM (inactive) | GI50 [54]: > 100 µM (inactive) | GI50 [55]: > 100 µM (inactive)

COc1ccc(S(=O)(=O)N/N=C/CN2C(=O)c3ccccc3C2=O)cc1
GI50 [1]: > 100 µM (inactive) | GI50 [3]: > 100 µM (inactive) | GI50 [4]: > 100 µM (inactive) | GI50 [5]: > 100 µM (inactive) | GI50 [6]: > 100 µM (inactive) | GI50 [7]: > 100 µM (inactive) | GI50 [8]: > 100 µM (inactive) | GI50 [56]: > 100 µM (inactive) | GI50 [9]: > 100 µM (inactive) | GI50 [10]: > 100 µM (inactive) | GI50 [11]: > 10 µM (inactive) | GI50 [12]: > 100 µM (inactive) | GI50 [13]: > 100 µM (inactive) | GI50 [15]: > 100 µM (inactive) | GI50 [17]: > 100 µM (inactive) | GI50 [57]: > 100 µM (inactive) | GI50 [19]: > 100 µM (inactive) | GI50 [20]: > 100 µM (inactive) | GI50 [21]: 47 µM (inactive) | GI50 [22]: > 100 µM (inactive) | GI50 [23]: > 100 µM (inactive) | GI50 [24]: > 100 µM (inactive) | GI50 [25]: > 100 µM (inactive) | GI50 [26]: > 100 µM (inactive) | GI50 [27]: > 100 µM (inactive) | GI50 [28]: > 100 µM (inactive) | GI50 [29]: > 100 µM (inactive) | GI50 [30]: > 100 µM (inactive) | GI50 [31]: > 100 µM (inactive) | GI50 [32]: > 100 µM (inactive) | GI50 [35]: > 100 µM (inactive) | GI50 [36]: > 100 µM (inactive) | GI50 [37]: > 100 µM (inactive) | GI50 [38]: > 100 µM (inactive) | GI50 [39]: > 100 µM (inactive) | GI50 [40]: > 100 µM (inactive) | GI50 [41]: > 100 µM (inactive) | GI50 [42]: > 100 µM (inactive) | GI50 [43]: > 100 µM (inactive) | GI50 [44]: > 100 µM (inactive) | GI50 [45]: > 100 µM (inactive) | GI50 [46]: > 100 µM (inactive) | GI50 [50]: > 100 µM | GI50 [51]: > 100 µM (inactive) | GI50 [52]: > 10 µM (inactive) | GI50 [53]: > 100 µM (inactive) | GI50 [54]: > 100 µM (inactive) | GI50 [55]: > 100 µM (inactive)
